Assay results reported in patent US11464770B2, “Anticancer pharmaceutical composition” (NATIONAL CANCER CENTER, priority 2016, dated 2022).
Like-named read-outs stand apart in the source and are kept apart here.

Experiments:
[1] = tested on: colorectal cancer cell lines (e.g. DLD-1, HCT 116, SW620, HCT-15, HCT-8, RKO); test: Cell based assay, cell viability (CellTiter-Glo), colorectal cancer cell lines
Summary of the method: (§1)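 Seed cells after trypsin-EDTA treatment, hold 24 h at constant temperature, then add compound to a final 0 to 2 μM. Culture 72 h more and measure viability via ATP detection.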

liver cancer cell lines = test: Cell based assay, cell viability (CellTiter-Glo), liver cancer cell lines; conditions: Homo sapiens, SK-HEP1; SK-HEP-1 cell line
Summary of the method: as §1

[2] = tested on: cervical carcinoma cell lines; test: Cell based assay, cell viability (CellTiter-Glo), cervical carcinoma cell lines; conditions: Homo sapiens; HeLa cells
[3] = Homo sapiens, DLD-1, 72 hours treatment, read-out: IC50, colorectal cancer cell line DLD-1
[4] = Homo sapiens, HCT 116, 72 hours treatment, read-out: IC50, colorectal cancer cell line HCT 116
[5] = Homo sapiens, HCT-8, 72 hours treatment, read-out: IC50, colorectal cancer cell line HCT-8
[6] = Homo sapiens, HCT-15, 72 hours treatment, read-out: IC50, colorectal cancer cell line HCT-15
[7] = Homo sapiens, HT-29, 72 hours treatment, read-out: IC50, colorectal cancer cell line HT-29
[8] = Homo sapiens, LoVo, 72 hours treatment, read-out: IC50, colorectal cancer cell line LoVo
[9] = Homo sapiens, SW480, 72 hours treatment, read-out: IC50, colorectal cancer cell line SW480
[10] = Homo sapiens, SW-620, SW620, 72 hours treatment, read-out: IC50, colorectal cancer cell line SW620
[11] = RKO, 72 hours treatment, read-out: IC50, colorectal cancer cell line RKO

SMILES	IC50 [1, 3] [nM]	IC50 [1, 4] [nM]	IC50 [1, 5] [nM]	IC50 [1, 6] [nM]	IC50 [1, 7] [nM]	IC50 [1, 8] [nM]	IC50 [1, 9] [nM]	IC50 [1, 10] [nM]	IC50 [1, 11] [nM]	IC50 (liver cancer cell lines) [nM]	IC50 [2] [nM]	IC50 ([1]; Homo sapiens, DLD-1 cells, 72 hours treatment, read-out: IC50, colorectal cancer cell line DLD-1) [nM]	IC50 ([1]; Homo sapiens, HCT 116 cells, 72 hours treatment, read-out: IC50, colorectal cancer cell line HCT 116) [nM]	IC50 ([1]; Homo sapiens, HCT-8 cells, 72 hours treatment, read-out: IC50, colorectal cancer cell line HCT-8) [nM]	IC50 ([1]; Homo sapiens, HCT-15 cells, 72 hours treatment, read-out: IC50, colorectal cancer cell line HCT-15) [nM]	IC50 ([1]; Homo sapiens, HT-29 cells, 72 hours treatment, read-out: IC50, colorectal cancer cell line HT-29) [nM]	IC50 ([1]; Homo sapiens, LoVo cells, 72 hours treatment, read-out: IC50, colorectal cancer cell line LoVo) [nM]	IC50 ([1]; Homo sapiens, RKO cells, 72 hours treatment, read-out: IC50, colorectal cancer cell line RKO) [nM]	IC50 ([1]; Homo sapiens, SW480 cells, 72 hours treatment, read-out: IC50, colorectal cancer cell line SW480) [nM]	IC50 ([1]; Homo sapiens, SW-620, SW620 cells, 72 hours treatment, read-out: IC50, colorectal cancer cell line SW620) [nM]
CC(=O)c1c([S+]([O-])Cc2ccc(F)cc2F)[nH]c2c(Br)ccc(Cl)c2c1=O (centres unmarked) [Compound 29, 3-acetyl-8-bromo-5-chloro-2-((2,4-difluorobenzyl)sulfinyl)quinolin-4(1H)-one]	870	1210	1710	1400	> 10000	> 2000	> 2000	1380	1570	1030	> 10000									
CC(=O)c1c([S+]([O-])Cc2cc(C)on2)[nH]c2c(Br)ccc(Cl)c2c1=O (centres unmarked) [Compound 51, 3-acetyl-8-bromo-5-chloro-2-(((5-methylisoxazol-3-yl)methyl)sulfinyl)quinolin-4(1H)-one]	660	840	1210	1010	> 10000	1640	950	1000	1100	1310	> 10000									
CC(=O)c1c([S+]([O-])Cc2cc(F)cc(S(F)(F)(F)(F)F)c2)[nH]c2c(Br)ccc(Cl)c2c1=O (centres unmarked) [Compound 76, 3-acetyl-8-bromo-5-chloro-2-((3-fluoro-5-(pentafluoro--sulfanyl)benzyl)sulfinyl)quinolin-4(1H)-one]	1090	1570	> 2000	1640	> 10000	> 2000	> 2000	> 2000	1520	1230	> 10000									
CC(=O)c1c([S+]([O-])Cc2ccc(I)cc2)[nH]c2c(Cl)ccc(Cl)c2c1=O (centres unmarked) [Compound 83, 3-acetyl-5,8-dichloro-2-((4-iodobenzyl)sulfinyl)quinolin-4(1H)-one]										1510	> 10000	1380	1800	1880	1620	> 10000	> 2000	1030	> 2000	> 2000
CC(=O)c1c([S+]([O-])Cc2ccc([N+](=O)[O-])cc2)[nH]c2c(Br)ccc(Cl)c2c1=O (centres unmarked) [Compound 33, 3-acetyl-8-bromo-5-chloro-2-((4-nitrobenzyl)sulfinyl)quinolin-4(1H)-one]	940	1330	1650	1530	> 10000	> 2000	> 2000	1510	1500	1080	> 10000									

Now those with a lower IC50 (liver cancer cell lines), led by results:

IC50 [1, 3] [nM]	IC50 [1, 4] [nM]	IC50 [1, 5] [nM]	IC50 [1, 6] [nM]	IC50 [1, 7] [nM]	IC50 [1, 8] [nM]	IC50 [1, 9] [nM]	IC50 [1, 10] [nM]	IC50 [1, 11] [nM]	IC50 (liver cancer cell lines) [nM]	IC50 [2] [nM]	IC50 ([1]; Homo sapiens, DLD-1 cells, 72 hours treatment, read-out: IC50, colorectal cancer cell line DLD-1) [nM]	IC50 ([1]; Homo sapiens, HCT 116 cells, 72 hours treatment, read-out: IC50, colorectal cancer cell line HCT 116) [nM]	IC50 ([1]; Homo sapiens, HCT-8 cells, 72 hours treatment, read-out: IC50, colorectal cancer cell line HCT-8) [nM]	IC50 ([1]; Homo sapiens, HCT-15 cells, 72 hours treatment, read-out: IC50, colorectal cancer cell line HCT-15) [nM]	IC50 ([1]; Homo sapiens, HT-29 cells, 72 hours treatment, read-out: IC50, colorectal cancer cell line HT-29) [nM]	IC50 ([1]; Homo sapiens, LoVo cells, 72 hours treatment, read-out: IC50, colorectal cancer cell line LoVo) [nM]	IC50 ([1]; Homo sapiens, RKO cells, 72 hours treatment, read-out: IC50, colorectal cancer cell line RKO) [nM]	IC50 ([1]; Homo sapiens, SW480 cells, 72 hours treatment, read-out: IC50, colorectal cancer cell line SW480) [nM]	IC50 ([1]; Homo sapiens, SW-620, SW620 cells, 72 hours treatment, read-out: IC50, colorectal cancer cell line SW620) [nM]	SMILES
890	1110	1500	1270	> 10000	> 2000	> 2000	1350	1560	910	> 10000										COc1cc(C[S+]([O-])c2[nH]c3c(Br)ccc(Cl)c3c(=O)c2C(C)=O)cc(OC)c1 (centres unmarked) [Compound 59, 3-acetyl-8-bromo-5-chloro-2-((3,5-dimethoxybenzyl)sulfinyl)quinolin-4(1H)-one]
740	940	1240	990	> 2000	1920	1410	1240	1350	730	> 2000										CC(=O)c1c([S+]([O-])Cc2ccc(C(F)(F)F)o2)[nH]c2c(Br)ccc(Cl)c2c1=O (centres unmarked) [Compound 72, 3-acetyl-8-bromo-5-chloro-2-(((5-(trifluoromethyl)furan-2-yl)methyl)sulfinyl)quinolin-4(1H)-one]
